Data reported in US12458688B2, “Epitopes” (Scancell Limited, priority 2018, dated 2025).
Where no end group is shown, it is not given here. [ ]: non-standard residue; d: D form. hCit = NC(=O)NCCCC[C@H](N)C(=O)O

tested on: HLA transgenic mice; experiment: T cell response to Hcit peptides in HLA transgenic mice (screening, ex vivo ELISpot); design: species or system mouse; conditions: yes/no; Hcit peptide with CpG/MPLA
Method: C57BL/6 mice (Charles River, UK), HLA-DR4 mice (Model #4149, Taconic, USA), HLA-A2/DR1 (HHDII/DR1, Pasteur Institute), HLA-A2.1+/+HLA-DP4+/+hCD4+/+ (HLA-HHDII/DP4) transgenic mice (EM: 02221, European Mouse Mutant Archive) described in patent WO2013/017545 A1 (EMMA repository, France) were used, aged between 8 and 12 weeks. Peptides were dissolved in PBS to 1 mg/ml and then emulsified (a series of dilutions) with CpG ODN 1826 and MPLA 6 μg/mouse of each (Invivogen, UK). Peptides (25 μg/mouse) were injected subcutaneously at the base of the tail. Mice were immunised at days 1, 7 and 14 for peptide immunisation. Spleens were removed for analysis at day 21 unless stated otherwise.
ELISpot assays were performed using murine IFNγ, IL-17 and IL-10 capture and detection reagents according to the manufacturer's instructions (Mabtech, Sweden). In brief, anti-IFNγ, IL-17 and IL-10 specific antibodies were coated onto wells of 96-well Immobilin-P plate. Synthetic peptides (at various concentrations) and 5×10^5 per well splenocytes were added to wells of the plate in quadruplicate Tumour target cells were added where relevant at 5×10^4/well in triplicate and plates incubated for 40 hrs at 37° C. After incubation, captured IFNγ, IL-10 and IL-17 were detected by biotinylated anti-IFNγ, IL-10 and IL-17 antibodies and developed with a streptavidin alkaline phosphatase and chromogenic substrate. Lipopolysaccharide (LPS; 5 μg/ml) was used as a positive control. For MHC blocking studies, anti-CD4 blocking antibody (GK1.5) or anti-CD4 blocking antibody (RPA-T4) for HHDII/DP4 mice which express human CD4 and anti-CD8 blocking antibody (2.43) from Bioxcell were used at 20 μg/ml. Spots were analysed and counted using an automated plate reader (Cellular Technologies Ltd).
Screening was performed to identify potential homocitrullinated vimentin epitopes in mice. Mice were immunised with pools of homocitrullinated peptides. […] Each pool was administered as three immunisations containing 20 μg of each peptide and CpG/MPLA as an adjuvant on day 1, 8 and 15. On day 21 the mice were culled and the immune responses to each peptide within the immunising pool were assessed by ex vivo ELISpot. Given that different mouse strains have different MHC repertoires a number of strains were used for screening. Peptide responses were assessed in transgenic strains expressing human DR4 or HHDII/DR1 in a C57BL/6 background (see methods).
(§1) Screening was performed to identify potential homocitrullinated ALDOA epitopes in transgenic HHDII/DP4 and HHDII/DR1 mice. Mice were immunised with pools of human homocitrullinated peptides. […] Each pool was administered as three immunisations containing 20 μg of each peptide and CpG/MPLA as an adjuvant. After 21 days the mice were culled and the immune responses to each peptide within the immunising pool were assessed by ex vivo ELISpot in HHDII/DP4 (FIG. 4b) and HHDII/DR1 mice (FIG. 4d).
as §1, with “Using this combination of predictions, 5 CyK8 peptides containing homocitrulline were synthesised (Table 4). Screening” for “Screening”, “Cyk8” for “ALDOA”, “HHDII/DP4.” for “HHDII/DP4 and HHDII/DR1 mice.”, “10a).” for “4b) and HHDII/DR1 mice (FIG. 4d).”

Q: “EIN-hcit-RTEMENEFVLI-hcit-hcit-DVDE (EIN[hCit]RTEMENEFVLI[hCit][hCit]DVDE) [Cyk8 182-202 Hcit]” was tested. Which T cell response did it give?
A: Yes

Q: With “HACTQ-hcit-FSH(N)EEIAMATVTA (HACTQ[hCit]FSHNEEIAMATVTA; not fully specified; printed as HACTQ-hcit-FSH(N)EEIAMATVTA) [Aldolase A 238-256 Hcit]” as the substance, how does the T cell response read?
A: yes

Q: For “IGGVILFHETLYQ-hcit-ADDGRP (IGGVILFHETLYQ[hCit]ADDGRP) [Aldolase A 74-93 Hcit]”, which T cell response is on record?
A: yes

Q: How did the T cell response turn out when “KFASFID-Hcit-VRFLEQQN-Hcit-MLE (KFASFID[hCit]VRFLEQQN[hCit]MLE) [Cyk8 101-120 Hcit]” was run?
A: Yes

Q: How did the T cell response turn out when “LEQQN-hcit-MLET-hcit-WSLLQQQ-hcit-T (LEQQN[hCit]MLET[hCit]WSLLQQQ[hCit]T) [Cyk8 112-131 Hcit]” was run?
A: Yes

Q: For “LREYQELMNV-hcit-LALDIEI (LREYQELMNV[hCit]LALDIEI) [Cyk8 371-388 Hcit]”, which T cell response is on record?
A: Yes

Q: With “NYID-Hcit-VRFLEQQN-Hcit-ILLAEL (NYID[hCit]VRFLEQQN[hCit]ILLAEL) [Vimentin 116-135 Hcit]” as the substance, how does the T cell response read?
A: yes

Q: With “hcit-DGADFA-hcit-WRCVL-hcit-IGEH ([hCit]DGADFA[hCit]WRCVL[hCit]IGEH) [Aldolase A 140-157 Hcit]” as the substance, how does the T cell response read?
A: yes

Q: For “hcit-LALDIEIATYR-hcit-LLEGEE ([hCit]LALDIEIATYR[hCit]LLEGEE) [Cyk8 381-399 Hcit]”, which T cell response is on record?
A: Yes
